For the assay, the target named is ERα (Homo sapiens (Human), UniProt P03372). In words: Estrogen receptor degradation activity: breast cancer cell ERα in cell western assay. In kind it is cell-based. The following applies: MCF7 cells; for % Degradation At 0.3 μM: 4 hours, normalised to fulvestrant 0.1 μM and DMSO. As to the method: Said test involves measuring the in vitro degradation activity of the compounds of the Table 1a.
The measurements of the degradation activities were made using a breast cancer cell ERα in cell western assay as described hereunder.
MCF7 cells (ATCC) were seeded in 384 wells microplate (collagen coated) at a concentration of 10000 cells/30 μL per well in red phenol free MEM alpha medium (invitrogen) containing 5% charcoal dextran striped FBS. The following day, 9 points serial 1:5 dilution of each compound was added to the cells in 2.5 μL at final concentrations ranging from 0.3-0.0000018 μM (in table 2), or 0.1 μM for fulvestrant (using as positive control). At 4 hours post compound addition the cells were fixed by adding 25 μL of formalin (final concentration 5% formalin containing 0.1% triton) for 10 minutes at room temperature and then washed twice with PBS. Then, 50 μL of LI-COR blocking buffer containing 0.1% Triton was added to plate for 30 minutes at room temperature. LI-COR blocking buffer was removed and cells were incubated overnight at cold room with 50 μL anti-ER rabbit monoclonal antibody (Thermo scientific MA1-39540) diluted at 1:1000 in LI-COR blocking buffer containing 0.1% tween-20. Wells which were treated with blocking buffer but no antibody were used as background control. Wells were washed twice with PBS (0.1% tween-20) and incubated at 37° C. for 60 minutes in LI-COR (0.1% tween-20) containing goat anti-rabbit antibody Alexa 488 (1:1000) and Syto-64 a DNA dye (2 μM final concentration). Cells were then washed 3 times in PBS and scanned in ACUMEN explorer (TTP-Labtech). Integrated intensities in the green fluorescence and red fluorescence were measured to determine the levels of ERα and DNA respectively.
The degradation activity with respect to estrogen receptors in this test is given by the concentration which degrades 50% of the estrogen receptor (or IC50) in nM.
The % of ERα levels decrease were determined as follows: % inhibition=100*(1−(sample−fulvestrant:DMSO−fulvestrant)).

Where [1] appears, read: 4 hours post compound addition, concentration which degrades 50% of the estrogen receptor.

Chain of ERα (P03372 whole entry): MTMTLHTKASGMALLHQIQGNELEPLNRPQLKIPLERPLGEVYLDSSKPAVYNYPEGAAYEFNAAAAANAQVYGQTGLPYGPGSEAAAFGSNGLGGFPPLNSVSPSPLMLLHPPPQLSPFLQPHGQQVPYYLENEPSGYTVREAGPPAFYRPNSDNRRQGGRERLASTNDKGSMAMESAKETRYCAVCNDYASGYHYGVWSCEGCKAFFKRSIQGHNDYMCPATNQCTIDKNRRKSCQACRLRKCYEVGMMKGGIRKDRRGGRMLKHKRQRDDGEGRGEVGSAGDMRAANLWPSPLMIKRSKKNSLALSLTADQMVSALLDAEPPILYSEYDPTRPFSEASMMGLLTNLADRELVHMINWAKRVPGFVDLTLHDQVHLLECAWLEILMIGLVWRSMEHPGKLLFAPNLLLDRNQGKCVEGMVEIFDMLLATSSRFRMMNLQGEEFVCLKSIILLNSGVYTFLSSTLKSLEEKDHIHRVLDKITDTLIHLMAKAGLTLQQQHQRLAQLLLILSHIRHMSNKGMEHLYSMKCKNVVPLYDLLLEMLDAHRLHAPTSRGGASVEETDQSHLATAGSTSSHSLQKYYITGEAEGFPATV

On to `O=C(O)c1ccc2c(c1)CCCC(c1ccccc1C(F)F)=C2c1ccc(C=C2CN(CCCF)C2)cc1` [Compound 58, 8-(2-(difluoromethyl)phenyl)-9-(4-((1-(3-fluoropropyl)azetidin-3-ylidene)methyl)phenyl)-6,7-dihydro-5H-benzo[7]annulene-3-carboxylic acid], for which the “% Degradation At 0.3 μM” value is listed as 93%. This molecule also registered an IC50 under setting [1] of 0.2 nM.

`Cc1ccc(C2=C(c3ccc(C=C4CN(CCCF)C4)cc3)c3ccc(C(=O)O)cc3CCC2)c(C)c1F` [Compound 12, 8-(3-fluoro-2,4-dimethylphenyl)-9-(4-((1-(3-fluoropropyl)azetidin-3-ylidene)methyl)phenyl)-6,7-dihydro-5H-benzo[7]annulene-3-carboxylic acid]: the “% Degradation At 0.3 μM” value was determined as 92%. Also, the IC50 under setting [1] worked out at 0.7 nM.

For `Cc1ccc(C(F)F)c(C2=C(c3ccc(C=C4CN(CCCF)C4)cc3)c3ccc(C(=O)O)cc3CCC2)c1` [Compound 57, 8-(2-(difluoromethyl)-5-methylphenyl)-9-(4-((1-(3-fluoropropyl)azetidin-3-ylidene)methyl)phenyl)-6,7-dihydro-5H-benzo[7]annulene-3-carboxylic acid], the “% Degradation At 0.3 μM” value is 93%. Half-maximal inhibition under setting [1] (IC50) required 0.7 nM.

Take `Cc1cc(C)c(C2=C(c3ccc(C=C4CN(CCCF)C4)cc3)c3ccc(C(=O)O)cc3CCC2)c(F)c1` [Compound 76, 8-(2-fluoro-4,6-dimethylphenyl)-9-(4-((1-(3-fluoropropyl)azetidin-3-ylidene)methyl)phenyl)-6,7-dihydro-5H-benzo[7]annulene-3-carboxylic acid]: the “% Degradation At 0.3 μM” value was 95%. The same molecule returned an IC50 under setting [1] of 0.2 nM.

On to `COc1c(Cl)cccc1C1=C(c2ccc(C=C3CN(CCCF)C3)cc2)c2ccc(C(=O)O)cc2CCC1` [Compound 49, 8-(3-chloro-2-methoxyphenyl)-9-(4-((1-(3-fluoropropyl)azetidin-3-ylidene)methyl)phenyl)-6,7-dihydro-5H-benzo[7]annulene-3-carboxylic acid], for which the “% Degradation At 0.3 μM” value was 93%. This molecule also gave a 50% inhibitory concentration (IC50) under setting [1] of 0.5 nM.

`CCc1cccc(CC)c1C1=C(c2ccc(C=C3CN(CCCF)C3)cc2)c2ccc(C(=O)O)cc2CCC1` [Compound 74, 8-(2,6-diethylphenyl)-9-(4-((1-(3-fluoropropyl)azetidin-3-ylidene)methyl)phenyl)-6,7-dihydro-5H-benzo[7]annulene-3-carboxylic acid]: the “% Degradation At 0.3 μM” value turned out to be 90%. This molecule gave an IC50 under setting [1] of 0.8 nM.

In the case of `Cc1cccc(C2=C(c3ccc(C=C4CN(CCCF)C4)cc3)c3ccc(C(=O)O)cc3CCC2)c1C(F)F` [Compound 30, 8-(2-(difluoromethyl)-3-methylphenyl)-9-(4-((1-(3-fluoropropyl)azetidin-3-ylidene)methyl)phenyl)-6,7-dihydro-5H-benzo[7]annulene-3-carboxylic acid], the “% Degradation At 0.3 μM” value was 91%. This molecule returned a concentration for half-maximal inhibition (IC50) under setting [1] of 0.4 nM.

On to `Cc1c(OC(F)(F)F)cccc1C1=C(c2ccc(C=C3CN(CCCF)C3)cc2)c2ccc(C(=O)O)cc2CCC1` [Compound 24, 9-(4-((1-(3-fluoropropyl)azetidin-3-ylidene)methyl)phenyl)-8-(2-methyl-3-(trifluoromethoxy)phenyl)-6,7-dihydro-5H-benzo[7]annulene-3-carboxylic acid], for which the “% Degradation At 0.3 μM” value was found to be 91%. Besides, 0.5 nM corresponded to half-maximal inhibition under setting [1] (IC50).

Take `O=C(O)c1ccc2c(c1)CCCC(c1ccc(C(F)F)cc1C(F)(F)F)=C2c1ccc(C=C2CN(CCCF)C2)cc1` [Compound 51, 8-(4-(difluoromethyl)-2-(trifluoromethyl)phenyl)-9-(4-((1-(3-fluoropropyl)azetidin-3-ylidene)methyl)phenyl)-6,7-dihydro-5H-benzo[7]annulene-3-carboxylic acid]: the “% Degradation At 0.3 μM” value was found to be 92%. Further, the IC50 under setting [1] stood at 0.5 nM.

Turning to `COc1cccc(C2=C(c3ccc(C=C4CN(CCCF)C4)cc3)c3ccc(C(=O)O)cc3CCC2)c1C(F)F` [Compound 60, 8-(2-(difluoromethyl)-3-methoxyphenyl)-9-(4-((1-(3-fluoropropyl)azetidin-3-ylidene)methyl)phenyl)-6,7-dihydro-5H-benzo[7]annulene-3-carboxylic acid], the “% Degradation At 0.3 μM” value stood at 93%. This molecule also gave an IC50 under setting [1] of 0.6 nM.

For `Cc1c(Cl)cccc1C1=C(c2ccc(C=C3CN(CCC(F)F)C3)cc2)c2ccc(O)cc2CCC1` [Compound 42, 8-(3-chloro-2-methylphenyl)-9-(4-((1-(3,3-difluoropropyl)azetidin-3-ylidene)methyl)phenyl)-6,7-dihydro-5H-benzo[7]annulen-3-ol], the “% Degradation At 0.3 μM” value worked out at 53%. Under setting [1], the IC50 stood at 6.4 nM.

On to `COc1cc(C2=C(c3ccc(C=C4CN(CCCF)C4)cc3)c3ccc(C(=O)O)cc3CCC2)ccc1C(F)F` [Compound 31, 8-(4-(difluoromethyl)-3-methoxyphenyl)-9-(4-((1-(3-fluoropropyl)azetidin-3-ylidene)methyl)phenyl)-6,7-dihydro-5H-benzo[7]annulene-3-carboxylic acid], for which the “% Degradation At 0.3 μM” value was 95%. Under setting [1], this molecule returned an IC50 of 37.8 nM.

With `O=C(O)c1ccc2c(c1)CCCC(c1c(Cl)cccc1OC(F)(F)F)=C2c1ccc(C=C2CN(CCCF)C2)cc1` [Compound 17, 8-(2-chloro-6-(trifluoromethoxy)phenyl)-9-(4-((1-(3-fluoropropyl)azetidin-3-ylidene)methyl)phenyl)-6,7-dihydro-5H-benzo[7]annulene-3-carboxylic acid], the “% Degradation At 0.3 μM” value is 91%. This molecule also returned an IC50 under setting [1] of 0.5 nM.

For `O=C(O)c1ccc2c(c1)CCCC(c1cccc(Cl)c1OC(F)(F)F)=C2c1ccc(C=C2CN(CCCF)C2)cc1` [Compound 34, 8-(3-chloro-2-(trifluoromethoxy)phenyl)-9-(4-((1-(3-fluoropropyl)azetidin-3-ylidene)methyl)phenyl)-6,7-dihydro-5H-benzo[7]annulene-3-carboxylic acid], the “% Degradation At 0.3 μM” value was 94%. Under setting [1], this molecule registered an IC50 of 0.7 nM.

As to `CC1(C)CCC(C2=C(c3ncc(C=C4CN(CCC(F)F)C4)cc3F)c3ccc(C(=O)O)cc3CCC2)CC1` [Compound 66, 9-(5-((1-(3,3-difluoropropyl)azetidin-3-ylidene)methyl)-3-fluoropyridin-2-yl)-8-(4,4-dimethylcyclohexyl)-6,7-dihydro-5H-benzo[7]annulene-3-carboxylic acid], the “% Degradation At 0.3 μM” value is 86%. For the same molecule, half-maximal inhibition under setting [1] (IC50) required 1.7 nM.

`COc1ccc(C2=C(c3ccc(C=C4CN(CCCF)C4)cc3)c3ccc(C(=O)O)cc3CCC2)c(C(F)(F)F)c1` [Compound 62, 9-(4-((1-(3-fluoropropyl)azetidin-3-ylidene)methyl)phenyl)-8-(4-methoxy-2-(trifluoromethyl)phenyl)-6,7-dihydro-5H-benzo[7]annulene-3-carboxylic acid]: the “% Degradation At 0.3 μM” value stood at 93%. The same molecule registered an IC50 under setting [1] of 0.5 nM.

On to `Cc1ccc(C2=C(c3ccc(C=C4CN(CCCF)C4)cc3)c3ccc(C(=O)O)cc3CCC2)c(C)c1Cl` [Compound 13, 8-(3-chloro-2,4-dimethylphenyl)-9-(4-((1-(3-fluoropropyl)azetidin-3-ylidene)methyl)phenyl)-6,7-dihydro-5H-benzo[7]annulene-3-carboxylic acid], for which the “% Degradation At 0.3 μM” value amounted to 91%. Besides, the 50% inhibitory concentration (IC50) under setting [1] worked out at 0.4 nM.

Regarding `COc1cccc(C2=C(c3ccc(C=C4CN(CCCF)C4)cc3)c3ccc(C(=O)O)cc3CCC2)c1OC` [Compound 81, 8-(2,3-dimethoxyphenyl)-9-(4-((1-(3-fluoropropyl)azetidin-3-ylidene)methyl)phenyl)-6,7-dihydro-5H-benzo[7]annulene-3-carboxylic acid], the “% Degradation At 0.3 μM” value was found to be 92%. Besides, the half-inhibitory concentration (IC50) under setting [1] was found to be 0.7 nM.

With `Cc1cccc(OC(F)(F)F)c1C1=C(c2ccc(C=C3CN(CCCF)C3)cc2)c2ccc(C(=O)O)cc2CCC1` [Compound 77, 9-(4-((1-(3-fluoropropyl)azetidin-3-ylidene)methyl)phenyl)-8-(2-methyl-6-(trifluoromethoxy)phenyl)-6,7-dihydro-5H-benzo[7]annulene-3-carboxylic acid], the “% Degradation At 0.3 μM” value was determined as 95%. In addition, the IC50 under setting [1] was 0.7 nM.

In the case of `O=C(O)c1ccc2c(c1)CCCC(C1CC13CCC3)=C2c1ccc(C=C2CN(CCCF)C2)cc1` (single isomer, unassigned) [Compound 36, 9-(4-((1-(3-fluoropropyl)azetidin-3-ylidene)methyl)phenyl)-8-(spiro[2.3]hexan-1-yl)-6,7-dihydro-5H-benzo[7]annulene-3-carboxylic acid], the “% Degradation At 0.3 μM” value is listed as 92%. Moreover, for the setting “4 hours post compound addition, concentration which degrades 50% of the estrogen receptor, read-out: Degradation IC50”, the DC50 stood at 0.2 nM.

By IC50 is commonly meant the concentration that inhibits the measured activity by half. Lower therefore signals higher potency.
